# Source: ChEMBL document CHEMBL2203118, “Ethyl 2,4,6-trihydroxybenzoate is an agonistic ligand for liver X receptor that induces cholesterol efflux from macrophages without affecting lipid accumulation in HepG2 cells” (Bioorg Med Chem Lett, 2012)
# Activity calls are given as the source filed them. The rule behind the calls is not given here.
# Target: T1, Peroxisome proliferator-activated receptor alpha (Homo sapiens) (UniProt Q07869)
# T1 sequence (whole entry): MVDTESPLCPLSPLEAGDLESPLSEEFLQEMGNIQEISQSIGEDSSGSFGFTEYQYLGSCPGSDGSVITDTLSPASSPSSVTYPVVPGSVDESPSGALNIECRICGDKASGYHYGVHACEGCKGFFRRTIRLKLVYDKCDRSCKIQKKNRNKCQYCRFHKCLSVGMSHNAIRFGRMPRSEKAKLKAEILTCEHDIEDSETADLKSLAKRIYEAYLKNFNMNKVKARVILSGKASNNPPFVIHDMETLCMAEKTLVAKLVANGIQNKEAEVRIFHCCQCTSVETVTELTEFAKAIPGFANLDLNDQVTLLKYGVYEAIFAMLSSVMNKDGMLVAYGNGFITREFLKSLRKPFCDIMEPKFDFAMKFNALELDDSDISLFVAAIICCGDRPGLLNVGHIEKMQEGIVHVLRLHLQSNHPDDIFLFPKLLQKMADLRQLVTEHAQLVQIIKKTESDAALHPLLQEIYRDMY
# Test: Transactivation of PPAR-alpha transfected in HEK293 cells at 10 uM after 24 hrs by luciferase reporter gene assay
# Assay type: cell-based
structure (smiles),measurement,value
CC(C)(Oc1ccc(C(=O)c2ccc(Cl)cc2)cc1)C(=O)O,Activity,Active
